Results published in publication PMC5577244, “CD2068 potentially mediates multidrug efflux in Clostridium difficile” (Scientific Reports, 2017).

Target: T1, CD2068 (Clostridioides difficile, UniProt Q188D7)
T1 construct: gene CD630_20680; full coding region in pET28a (NcoI/EcoRI), C-terminal His6 tag kept; expressed in E. coli BL21(DE3) pLysS; inside-out membrane vesicles; ~60 kDa
Assay: vanadate-sensitive ATPase stimulation, inside-out membrane vesicles, phosphate release
Type: biochemical
Conditions: not given
From the text: vanadate-sensitive ATPase stimulation, inside-out membrane vesicles, phosphate release on CD2068

T1 sequence (Q188D7 entry or part of it): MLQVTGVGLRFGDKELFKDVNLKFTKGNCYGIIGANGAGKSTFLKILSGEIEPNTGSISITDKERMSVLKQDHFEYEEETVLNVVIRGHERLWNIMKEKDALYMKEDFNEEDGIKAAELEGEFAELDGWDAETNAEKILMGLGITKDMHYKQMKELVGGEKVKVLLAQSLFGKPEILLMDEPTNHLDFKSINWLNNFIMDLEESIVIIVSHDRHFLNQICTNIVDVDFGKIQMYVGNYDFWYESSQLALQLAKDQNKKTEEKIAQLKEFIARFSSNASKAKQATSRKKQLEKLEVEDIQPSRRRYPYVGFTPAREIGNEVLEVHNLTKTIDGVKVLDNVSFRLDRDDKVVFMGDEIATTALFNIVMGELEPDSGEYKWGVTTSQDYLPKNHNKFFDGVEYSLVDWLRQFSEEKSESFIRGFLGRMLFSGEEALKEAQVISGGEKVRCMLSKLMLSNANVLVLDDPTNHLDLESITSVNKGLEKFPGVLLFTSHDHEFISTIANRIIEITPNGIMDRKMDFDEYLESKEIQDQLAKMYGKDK

Row | SMILES | EC50
1 | CC1(C)S[C@@H]2[C@H](NC(=O)[C@H](N)c3ccccc3)C(=O)N2[C@H]1C(=O)O [Ampicillin] | 4.4 µM
2 | CO[C@@]1(NC(=O)Cc2cccs2)C(=O)N2C(C(=O)O)=C(COC(N)=O)CS[C@@H]21 [Cefoxitin] | 7.6 ± 1 µM
3 | Cc1onc(-c2ccccc2Cl)c1C(=O)N[C@@H]1C(=O)N2[C@@H]1SC(C)(C)[C@@H]2C(=O)O [Cloxacillin] | 3 µM
4 | CC[C@H]1OC(=O)[C@H](C)[C@@H](O[C@H]2C[C@@](C)(OC)[C@@H](O)[C@H](C)O2)[C@H](C)[C@@H](O[C@@H]2O[C@H](C)C[C@H](N(C)C)[C@H]2O)[C@](C)(O)C[C@@H](C)/C(=N\OCOCCOC)[C@H](C)[C@@H](O)[C@]1(C)O [Roxithromycin] | 2.9 µM
5 | CN[C@H](CC(C)C)C(=O)N[C@H]1C(=O)N[C@@H](CC(N)=O)C(=O)N[C@H]2C(=O)N[C@H]3C(=O)N[C@H](C(=O)N[C@H](C(=O)O)c4cc(O)cc(O)c4-c4cc3ccc4O)[C@H](O)c3ccc(c(Cl)c3)Oc3cc2cc(c3O[C@@H]2O[C@H](CO)[C@@H](O)[C@H](O)[C@H]2O[C@H]2C[C@](C)(N)[C@H](O)[C@H](C)O2)Oc2ccc(cc2Cl)[C@H]1O [Vancomycin] | 3.4 ± 1 µM

Same assay, conditions: read-out: ATPase activity / SC50

Row | SMILES | EC50
6 | C[C@H]1COc2c(N3CCN(C)CC3)c(F)cc3c(=O)c(C(=O)O)cn1c23 [Levofloxacin] | 4.5 ± 1 µM
